Tests used:
Assay in all cases: relative IC50 (inflection point of fitted viability curve, relative to fitted max inhibition); higher = less sensitive
Details in all cases: 72 h
[1] = tested on: KAI3 (IL-2 2.5 ng/mL)
Description: (§1)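 Drug sensitivity and resistance testing: 5 concentrations over a 10,000-fold range, 72 h at 37 °C, viability by CellTiter-Glo normalised to DMSO and benzethonium chloride controls. IC50 is the inflection point of a logistic fit (min fixed at 0, max fitted), so it is relative to the fitted maximal inhibition. Kept only where fitted max inhibition is at least 50%.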

[2] = tested on: NK-92 (IL-2 2.5 ng/mL)
Description: as §1

[3] = tested on: NKL (IL-2 2.5 ng/mL)
Description: as §1

[4] = tested on: DERL-7 (IL-2 2.5 ng/mL)
Description: as §1

[5] = tested on: normal primary NK cells, pool 1 (3 donors), resting (IL-2 0 ng/mL)
Description: as §1

[6] = tested on: SNK-6 (IL-2 2.5 ng/mL)
Description: as §1

[7] = tested on: normal primary NK cells, pool 3 (3 donors) (IL-2 2.5 ng/mL)
Description: as §1

[8] = tested on: KHYG-1 (IL-2 2.5 ng/mL)
Description: as §1

[9] = tested on: NK-YS (IL-2 2.5 ng/mL)
Description: as §1

[10] = tested on: normal primary NK cells, pool 2 (3 donors) (IL-2 2.5 ng/mL)
Description: as §1

[11] = tested on: IMC-1 (IL-2 20 ng/mL)
Description: as §1

[12] = tested on: YT (IL-2 2.5 ng/mL)
Description: as §1

[13] = tested on: normal primary NK cells, pool 1 (3 donors) (IL-2 2.5 ng/mL)
Description: as §1

SMILES	relative IC50 [1] [nM]	relative IC50 [2] [nM]	relative IC50 [3] [nM]	relative IC50 [4] [nM]	relative IC50 [5] [nM]	relative IC50 [6] [nM]	relative IC50 [7] [nM]	relative IC50 [8] [nM]	relative IC50 [9] [nM]	relative IC50 [10] [nM]	relative IC50 [11] [nM]	relative IC50 [12] [nM]	relative IC50 [13] [nM]
CN(C)C[C@@H]1CCn2cc(c3ccccc32)C2=C(C(=O)NC2=O)c2cn(c3ccccc23)CCO1 [Ruboxistaurin]	1430	2950	1240	1140	1070	2810	2000	1290	1540	2110	4180	2730	1430
Cc1nc(Nc2n[nH]c3c2CN(C(=O)N[C@H](CN(C)C)c2ccccc2)C3(C)C)c2sccc2n1	243	431	503	57.3	1300	1340	1590	33.1	83.5	575	4.06	266	1420
CN1CCc2c(c3ccccc3n2Cc2ccc(C(=O)NO)cc2)C1 [Tubastatin A]	1170	1580	1030	3400	1510	1430	–	2550	1810	–	3270	2420	1790
COc1ccc(-c2ccc3ncc4c(c3c2)n(-c2ccc(N3CCNCC3)c(C(F)(F)F)c2)c(=O)n4C)cn1 [NVP-BGT226]	45.8	29.8	47.8	8.54	64.4	53.8	167	48.4	25.3	128	90.7	45.6	105
CNC(=O)c1nn(C)c2c1C(C)(C)Cc1cnc(Nc3ccc(N4CCN(C)CC4)cc3)nc1-2 [Milciclib]	1230	1190	1220	634	449	1780	1470	278	1170	775	3420	1680	1100
NC(=O)Nc1sc(-c2ccc(F)cc2)cc1C(N)=O [TPCA-1]	218	860	274	367	2310	514	1020	381	1440	658	7190	912	997
C[C@@H](Oc1ccc2[nH]nc(/C=C/c3cnn(CCO)c3)c2c1)c1c(Cl)cncc1Cl	20.9	50.1	11.9	91.8	–	15.7	30.1	16.1	59.2	15.6	165	224	47.9
CN(C)Cc1ccc(S(=O)(=O)n2ccc(/C=C/C(=O)NO)c2)cc1 [Resminostat]	304	629	258	1040	268	829	1720	731	1300	1160	3480	1460	667
Cc1ccc(NC(=O)c2ccc(CN3CCN(C)CC3)cc2)cc1Nc1nccc(-c2cccnc2)n1 [Imatinib]	3230	2230	3600	2190	1980	4290	–	3080	2920	–	3400	2740	1650
CO[C@@H]1[C@H](N(C)C(=O)c2ccccc2)C[C@H]2O[C@]1(C)n1c3ccccc3c3c4c(c5c6ccccc6n2c5c31)C(=O)NC4 [Midostaurin]	175	330	127	217	1050	115	594	186	338	438	486	431	188
O=C1c2c(O)ccc(O)c2C(=O)c2c(NCCNCCO)ccc(NCCNCCO)c21 [Mitoxantrone]	91	–	32.2	80.5	151	34.8	–	158	114	185	170	–	322
Cc1cc(Nc2ncc(Cl)c(Nc3ccccc3S(=O)(=O)C(C)C)n2)c(OC(C)C)cc1C1CCNCC1 [Ceritinib]	–	–	> 2500	–	464	–	–	–	> 2500	–	> 2500	–	616
Cn1cc(CNCC2CCN(c3ncc(C(=O)NO)cn3)CC2)c2ccccc21 [Quisinostat]	14.7	39.5	11	10.6	2.39	90.1	13.1	21.4	20.3	5.99	35.8	58.3	7.78
Cn1cncc1[C@@](N)(c1ccc(Cl)cc1)c1ccc2c(c1)c(-c1cccc(Cl)c1)cc(=O)n2C [Tipifarnib]	94.8	270	401	91.8	264	74.1	723	35.2	61.6	1580	1880	349	1110
Cc1nc(N)sc1-c1ccnc(Nc2ccc(N3CCOCC3)cc2)n1 [CYC-116]	1100	889	989	538	–	171	2800	599	238	1600	913	1400	1810
CC(C)CC(=O)Nc1n[nH]c2c1CN(C(=O)C1CCN(C)CC1)C2(C)C	1390	871	1510	666	4760	1650	2210	380	463	1890	182	1220	3000
CO[C@H]1/C=C\C=C(/C)C(=O)NC2=CC(=O)C(NCCN(C)C)=C(C[C@@H](C)C[C@H](OC)[C@H](O)[C@@H](C)/C=C(\C)[C@@H]1OC(N)=O)C2=O [Alvespimycin]	44.5	68.8	31.9	49.1	–	20.5	86.5	91.8	25.1	29.5	192	130	29.4
COc1cc2nccc(Oc3ccc(NC(=O)C4(C(=O)Nc5ccc(F)cc5)CC4)cc3)c2cc1OC [Cabozantinib]	–	–	–	–	–	–	–	–	–	–	–	–	> 1000
C/C(=C\c1csc(C)n1)[C@@H]1C[C@@H]2O[C@]2(C)CCC[C@H](C)[C@H](O)[C@@H](C)C(=O)C(C)(C)[C@@H](O)CC(=O)N1 [Ixabepilone]	383	398	357	335	> 1000	348	–	301	348	–	360	308	> 1000
Cc1ncc(-c2ccnc(Nc3ccc(S(C)(=O)=O)cc3)n2)n1C(C)C [AZD-5438]	1150	3010	2740	1370	5260	3300	1800	1080	848	1930	1220	1570	2220
O=[N+]([O-])c1ccc2c(c1)S(=O)(=O)C=C2 [Stattic]	1100	1800	4710	1220	1170	2020	1850	1700	6720	1660	18900	1770	1110
CC(=O)[C@]1(O)Cc2c(O)c3c(c(O)c2[C@@H](O[C@H]2C[C@H](N)[C@H](O)[C@H](C)O2)C1)C(=O)c1ccccc1C3=O [Idarubicin]	3.54	5.78	1.74	6.26	3.38	5.03	10.9	6.52	6.58	9.51	7.71	34	17.3
